Like-named read-outs stand apart in the source and are kept apart here.
Columns and labels:
RAF-1 = target: T1, RAF-1 (Homo sapiens, UniProt P04049); test: RAF-1 ELISA assay (RAF-1 phosphorylation of MEK and MAPK); format: biochemical; details: RAF-1 phosphorylation assay, lysates from RAS/RAF infected Sf9 cells, T-MEK and His-MAPK substrates
T1 construct: made in house; host or cells: Sf9 (Spodoptera frugiperda) insect cells co-infected with RAS and RAF recombinant baculoviruses
Excerpt: Assay Measuring Phosphorylating Function of RAF
The following assay reports the amount of RAF-catalyzed phosphorylation of its target protein MEK as well as MEK's target MAPK. The RAF gene sequence is described in Bonner et al., 1985, Molec. Cell. Biol. 5: 1400-1407, and is readily accessible in multiple gene sequence data banks. Construction of the nucleic acid vector and cell lines utilized for this portion of the invention are fully described in Morrison et al., 1988, Proc. Natl. Acad. Sci. USA 85: 8855-8859.
All of the following steps were conducted at room temperature unless specifically indicated.
1. ELISA plate coating: ELISA wells are coated with 100 μL of Sheep anti mouse affinity purified antiserum (1 μg/100 μL coating buffer) over night at 4° C. […]
11. […] Insert the holder into radioactive detection apparatus and quantify the radioactive phosphorous on the filter mats.
Alternatively, 40 μL aliquots from individual wells of the assay plate can be transferred to the corresponding Positions on the phosphocellulose filter mat. […] Insert the holder into a detection device and quantify the radioactive phosphorous on the filter mats.
IC50 values were measured according to the protocol for the following azabenzimidazole-based compounds in the RAF-1 ELISA assay: [drawing 5] […] The IC50 values measured in the RAF-1 phosphorylation assay are depicted in Table 1: […]

EGF Receptor = target: T2, EGF Receptor (Homo sapiens, UniProt P00533); test: EGF receptor phosphorylation assay in whole cells (EGFR-NIH3T3 assay); format: cell-based; details: EGF receptor kinase activity in whole cells
T2 construct: expressed in transfected cells; host or cells: NIH3T3 cells (EGFR-NIH3T3)
Protocol: Assay Measuring Phosphorylating Function of EGF Receptor
EGF Receptor kinase activity (EGFR-NIH3T3 assay) in whole cells was measured as described in detail in PCT Publication WO9640116, filed Jun. 5, 1996, by Tang et al., and entitled “Indolinone Compounds for the Treatment of Disease,” incorporated herein by reference in its entirety, including any drawings.
The IC50 values measured in the EGF receptor phosphorylation assay are depicted in Table 2: […]

[1] = test system: 3T3/H-Ras (NIH 3T3 clone 7 cells expressing genomic fragment of oncogenic H-Ras); test: Growth of NIH 3T3 cells over expressing H-Ras (SRB); format: cell-based; details: Mus musculus, NIH3T3, 72 h; cell growth, 2% calf serum, 3 days incubation
Protocol: Assay Measuring the Effect of Azabenzimidazole-Based Compounds on the Growth of Cells Expression RAS
The following assay measures growth rates for NIH-3T3 cells expressing RAS. The purpose of the assay is to determine the effects of compounds on the growth of NIH 3T3 cells over expressing H-Ras.
(§1) • 96-well flat bottom sterile plates • 96-well round bottom sterile plates • sterile 25 mL or 100 mL reservoir • pipets, multi-channel pipetman • sterile pipet tips • sterile 15 mL and 50 mL tubes Reagents • 0.4% SRB in 1% acetic acid • 10 mM Tris base • 10% TCA • 1% acetic acid • sterile DMSO (Sigma) • compound in DMSO (100 mM or less stock solution) • Trypsin-EDTA (GIBCO BRL) Cell Line • 3T3/H-Ras (NIH 3T3 clone 7 cells expressing genomic fragment of oncogenic H-Ras).
The cells can be constructed using the following protocol: • 1. Subclone a gene fragment encoding Ras into a commercially available vector that will stably transfect NIH-3T3 cells. The fragment is from the genomic transforming allele of cHa-ras. • 2. Transfect NIH-3T3 cells with the subcloned vector by a calcium phosphate method. Select cells expressing the Ras construct in 2% serum in DMEM. Visible foci are observed after 2 weeks. Pool the transformed cells to generate a stably transformed cell line. […]
6. Read plates on Dynatech ELISA Plate REader at 570 nm with reference at 630 nm.

[2] = test system: A549 human lung carcinoma cells; test: Growth of A549 cells (SRB); format: cell-based; details: cell growth
Protocol: Assay Measuring Effect of Azabenzimidazole-Based Compounds on Growth of A549 Cells
The following assay measures growth rates for A549 cells. The purpose of the assay is to determine the effects of compounds on the growth of A549 human lung carcinoma cells. A549 cells are readily accessible from commercial sources, such as ATCC (CCL185).
as §1, with “tips” for “tips •”, “Line and Growth Medium” for “Line”, “A549 human lung carcinoma” for “3T3/H-Ras (NIH 3T3 clone 7”, “(ATCC CCL185) • 10% fetal calf serum in Ham's F12-K Protocol Day 0: Cell Plating This part” for “expressing genomic fragment”, “assay is carried out in a laminar flow hood.” for “oncogenic H-Ras).”
1. Trypsinize cells. Transfer 200 μL of cell suspension to 10 mL of isotone. Count cells with a Coulter Counter.
2. Dilute cells in growth medium to 20,000 cell/mL. Transfer 100 μL of cells to each well in a 96-well flat bottom plate to give 2000 cells/well.
3. Use half of plate (4 rows) for each compound and quadruplicate wells for each compound concentration, and a set of 4 wells for medium control.
4. […]
6. Read plates on Dynatech ELISA Plate Reader at 570 nm with reference at 630 nm.

T2 sequence (P00533 25-1210): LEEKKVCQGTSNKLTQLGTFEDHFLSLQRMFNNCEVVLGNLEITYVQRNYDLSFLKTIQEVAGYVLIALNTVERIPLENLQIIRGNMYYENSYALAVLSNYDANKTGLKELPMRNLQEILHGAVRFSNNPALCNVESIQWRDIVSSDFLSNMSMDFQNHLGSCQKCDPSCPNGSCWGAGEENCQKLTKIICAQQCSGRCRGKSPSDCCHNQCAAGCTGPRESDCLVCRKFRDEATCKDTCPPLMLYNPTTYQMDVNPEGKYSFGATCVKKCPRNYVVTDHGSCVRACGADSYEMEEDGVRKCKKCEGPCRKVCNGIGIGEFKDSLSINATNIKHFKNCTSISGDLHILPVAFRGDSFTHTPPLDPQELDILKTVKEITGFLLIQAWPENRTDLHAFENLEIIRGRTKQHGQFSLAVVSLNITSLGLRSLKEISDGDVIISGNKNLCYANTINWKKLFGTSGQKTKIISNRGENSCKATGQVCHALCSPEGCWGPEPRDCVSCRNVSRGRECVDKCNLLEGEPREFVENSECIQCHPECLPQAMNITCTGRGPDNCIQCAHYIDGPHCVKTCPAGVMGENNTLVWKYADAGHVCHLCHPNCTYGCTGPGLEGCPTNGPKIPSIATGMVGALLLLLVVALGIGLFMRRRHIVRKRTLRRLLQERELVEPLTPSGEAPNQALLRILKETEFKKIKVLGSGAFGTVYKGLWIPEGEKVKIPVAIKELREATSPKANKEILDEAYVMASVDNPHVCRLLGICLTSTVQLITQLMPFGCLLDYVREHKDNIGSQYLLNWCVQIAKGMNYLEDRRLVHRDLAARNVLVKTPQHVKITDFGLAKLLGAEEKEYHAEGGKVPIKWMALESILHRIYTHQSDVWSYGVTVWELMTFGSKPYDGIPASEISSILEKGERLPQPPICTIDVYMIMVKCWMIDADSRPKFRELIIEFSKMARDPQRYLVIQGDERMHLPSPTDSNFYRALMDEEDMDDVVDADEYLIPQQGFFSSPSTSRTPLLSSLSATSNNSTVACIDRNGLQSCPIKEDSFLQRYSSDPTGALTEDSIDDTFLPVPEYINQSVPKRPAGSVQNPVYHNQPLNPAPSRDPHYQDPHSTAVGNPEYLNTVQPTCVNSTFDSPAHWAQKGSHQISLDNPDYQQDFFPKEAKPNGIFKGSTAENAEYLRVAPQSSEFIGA
T1 sequence (P04049 whole entry): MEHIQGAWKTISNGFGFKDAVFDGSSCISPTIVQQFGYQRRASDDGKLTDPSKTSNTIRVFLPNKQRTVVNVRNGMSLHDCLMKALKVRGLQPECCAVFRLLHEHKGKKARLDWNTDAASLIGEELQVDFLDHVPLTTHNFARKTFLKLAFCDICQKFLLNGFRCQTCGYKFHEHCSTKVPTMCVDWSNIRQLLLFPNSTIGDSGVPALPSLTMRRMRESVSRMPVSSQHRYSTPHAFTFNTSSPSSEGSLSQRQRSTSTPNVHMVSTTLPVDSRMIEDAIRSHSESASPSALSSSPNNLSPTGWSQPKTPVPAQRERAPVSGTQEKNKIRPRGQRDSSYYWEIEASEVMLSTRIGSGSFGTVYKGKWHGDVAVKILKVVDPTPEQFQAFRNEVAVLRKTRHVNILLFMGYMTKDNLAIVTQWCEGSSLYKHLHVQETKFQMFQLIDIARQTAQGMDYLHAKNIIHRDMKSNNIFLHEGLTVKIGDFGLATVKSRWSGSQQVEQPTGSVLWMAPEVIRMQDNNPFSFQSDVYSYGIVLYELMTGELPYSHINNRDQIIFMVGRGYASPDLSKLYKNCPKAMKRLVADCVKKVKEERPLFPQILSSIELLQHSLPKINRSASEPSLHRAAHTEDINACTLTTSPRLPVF

- IC50 (RAF-1): 6.1 µM
- IC50 (EGF Receptor): > 100 µM
- IC50 ([2]; 2% FBS, read-out: IC50 (μM) A549 (2% FBS)): 65 µM
- IC50 ([2]; 10% fetal calf serum in Ham's F12-K, read-out: IC50 (μM) A549): 22 µM
- melting point: > 280 °C (dec.)
Compound: COC(=O)Nc1nc2ccc(Oc3ccccc3)nc2[nH]1 [Compound A-3]
- IC50 [1]: 40 µM

From patent publication US6855723B2, “Methods of modulating serine/threonine protein kinase function with azabenzimidazole-based compounds” (Zentaris GmbH, priority 1997, dated 2005)
